In patent US20230340011A1 (Asteroid Therapeutics, priority 2022, published 2023) one finds IC50 and EC50 data, which are given here for 18 molecules.

The target in assay [1] is SREBP-2 (Homo sapiens (Human), UniProt Q12772). The assay can be described thus: In vitro assay SREBP-2: PathHunter U2OS SREBP-2 Nuclear Translocation Cell Line, U18666A-stimulated. It counts as cell-based. To be noted: PathHunter U2OS SREBP-2 nuclear translocation cells, U18666A 10 μM, overnight (16 hours).
Assay [2] concerns the target LXRβ (Homo sapiens (Human), UniProt P55055). The assay can be described thus: In vitro assay LXRβ: PathHunter NHR CHO cells, LXRβ / Steroid Receptor Co-activator Peptide enzyme fragment complementation. It counts as cell-based. To be noted: PathHunter NHR CHO cells, full-length human LXRβ and SRCP, chemiluminescent signal; read-out: LXRβ PPI. A digest of the protocol:
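Enzyme fragment complementation read-out: CHO cells stably expressing ProLink-tagged full-length human LXRβ plus nuclear enzyme acceptor–SRCP fusion, seeded and held overnight at 37° C. Medium with charcoal-dextran filtered serum; final vehicle 1%. Chemiluminescence measured after signal generation.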

Chain of LXRβ (P55055 whole entry, the tested form may be a part): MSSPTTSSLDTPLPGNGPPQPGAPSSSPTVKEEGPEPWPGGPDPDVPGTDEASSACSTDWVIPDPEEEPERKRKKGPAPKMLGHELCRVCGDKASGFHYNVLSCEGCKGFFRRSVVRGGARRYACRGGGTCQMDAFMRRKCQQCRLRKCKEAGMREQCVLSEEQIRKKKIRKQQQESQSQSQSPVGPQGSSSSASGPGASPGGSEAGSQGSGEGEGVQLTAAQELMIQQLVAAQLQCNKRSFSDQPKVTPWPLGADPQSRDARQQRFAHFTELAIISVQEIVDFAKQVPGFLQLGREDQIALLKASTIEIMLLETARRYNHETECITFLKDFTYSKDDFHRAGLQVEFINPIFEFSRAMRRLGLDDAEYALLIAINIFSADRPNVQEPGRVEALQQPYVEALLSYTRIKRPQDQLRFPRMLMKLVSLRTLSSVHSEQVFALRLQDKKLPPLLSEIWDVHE

As a reminder, the IC50 is the concentration that inhibits the measured activity by half. Lower therefore signals greater potency in that assay. As to `C[C@H](CCC(=O)N1CCN(c2ccncc2)C[C@@H]1C)[C@H]1CC[C@H]2[C@@H]3CC=C4C[C@@H](O)CC[C@]4(C)[C@H]3CC[C@]12C` [Example 580, (R)-4-((3S,8S,9S,10R,13R,14S,17R)-3-hydroxy-10,13-dimethyl-2,3,4,7,8,9,10,11,12,13,14,15,16,17-tetradecahydro-1H-cyclopenta[a]phenanthren-17-yl)-1-((S)-2-methyl-4-(pyridin-4-yl)piperazin-1-yl)pentan-1-one], in assay [1], the IC50 is less than 0.25 µM. Besides, the EC50 in assay [2] is more than 10 µM.

Turning to `C[C@H](CCC(=O)N1CCN(C(=O)c2cnccn2)C[C@@H]1C)[C@H]1CC[C@H]2[C@@H]3CC=C4C[C@@H](O)CC[C@]4(C)[C@H]3CC[C@]12C` [Example 581, (R)-4-((3S,8S,9S,10R,13R,14S,17R)-3-hydroxy-10,13-dimethyl-2,3,4,7,8,9,10,11,12,13,14,15,16,17-tetradecahydro-1H-cyclopenta[a]phenanthren-17-yl)-1-((S)-2-methyl-4-(pyrazine-2-carbonyl)piperazin-1-yl)pentan-1-one], the IC50 in assay [1] is less than 0.25 µM. Further, in assay [2], the EC50 was more than 10 µM.

In the case of `C[C@H](CCC(=O)N1CCN(C(=O)N(C)C)C[C@@H]1C)[C@H]1CC[C@H]2[C@@H]3CC=C4C[C@@H](O)CC[C@]4(C)[C@H]3CC[C@]12C` [Example 582, (S)-4-((R)-4-((3S,8S,9S,10R,13R,14S,17R)-3-hydroxy-10,13-dimethyl-2,3,4,7,8,9,10,11,12,13,14,15,16,17-tetradecahydro-1H-cyclopenta[a]phenanthren-17-yl)pentanoyl)-N,N,3-trimethylpiperazine-1-carboxamide], the IC50 in assay [1] was less than 0.25 µM. Moreover, the EC50 in assay [2] was more than 10 µM.

`CCC(=O)N1CCN(C(=O)CC[C@@H](C)[C@H]2CC[C@H]3[C@@H]4CC=C5C[C@@H](O)CC[C@]5(C)[C@H]4CC[C@]23C)[C@@H](C)C1` [Example 583, (4R)-4-[(1R,3aS,3bS,7S,9aR,9bS,11aR)-7-hydroxy-9a,11a-dimethyl-1H,2H,3H,3aH,3bH,4H,6H,7H,8H,9H,9aH,9bH,10H,11H,11aH-cyclopenta[a]phenanthren-1-yl]-1-[(2S)-2-methyl-4-propanoylpiperazin-1-yl]pentan-1-one] returned an IC50 in assay [1] of less than 0.25 µM. The EC50 in assay [2] was more than 10 µM.

In turn, `C[C@H](CCC(=O)N1CCN(C(=O)OC2CC2)C[C@@H]1C)[C@H]1CC[C@H]2[C@@H]3CC=C4C[C@@H](O)CC[C@]4(C)[C@H]3CC[C@]12C` [Example 584] returned an IC50 in assay [1] of less than 0.25 µM. The EC50 in assay [2] is more than 10 µM.

On to `C[C@H](CCC(=O)N1CC[C@H](Oc2ccncc2)C[C@@H]1C)[C@H]1CC[C@H]2[C@@H]3CC=C4C[C@@H](O)CC[C@]4(C)[C@H]3CC[C@]12C` [Example 585, (R)-4-((3S,8S,9S,10R,13R,14S,17R)-3-hydroxy-10,13-dimethyl-2,3,4,7,8,9,10,11,12,13,14,15,16,17-tetradecahydro-1H-cyclopenta[a]phenanthren-17-yl)-1-((2S,4S)-2-methyl-4-(pyridin-4-yloxy)piperidin-1-yl)pentan-1-one], for which, in assay [1], the IC50 is less than 0.25 µM. Besides, the EC50 in assay [2] was 0.25 to 1 µM.

In turn, `C[C@H](CCC(=O)N1CCN(C(=O)c2cn(C)nn2)C[C@@H]1C)[C@H]1CC[C@H]2[C@@H]3CC=C4C[C@@H](O)CC[C@]4(C)[C@H]3CC[C@]12C` [Example 587, (R)-4-((3S,8S,9S,10R,13R,14S,17R)-3-hydroxy-10,13-dimethyl-2,3,4,7,8,9,10,11,12,13,14,15,16,17-tetradecahydro-1H-cyclopenta[a]phenanthren-17-yl)-1-((S)-2-methyl-4-(1-methyl-1H-1,2,3-triazole-4-carbonyl)piperazin-1-yl)pentan-1-one] had an IC50 in assay [1] of less than 0.25 µM. In assay [2], the EC50 is more than 10 µM.

For the molecule `C[C@H](CCC(=O)N1CCN(c2ccncn2)C[C@@H]1C)[C@H]1CC[C@H]2[C@@H]3CC=C4C[C@@H](O)CC[C@]4(C)[C@H]3CC[C@]12C` [Example 588, (4R)-4-[(1R,3aS,3bS,7S,9aR,9bS,11aR)-7-hydroxy-9a,11a-dimethyl-1H,2H,3H,3aH,3bH,4H,6H,7H,8H,9H,9aH,9bH,10H,11H,11aH-cyclopenta[a]phenanthren-1-yl]-1-[(2S)-2-methyl-4-(pyrimidin-4-yl)piperazin-1-yl]pentan-1-one], in assay [1], the IC50 was less than 0.25 µM. Besides, the EC50 in assay [2] was more than 10 µM.

Molecule `CC(C)OC(=O)N1CCN(C(=O)CC[C@@H](C)[C@H]2CC[C@H]3[C@@H]4CC=C5C[C@@H](O)CC[C@]5(C)[C@H]4CC[C@]23C)[C@@H](C)C1` [Example 589, Isopropyl(S)-4-((R)-4-((3S,8S,9S,10R,13R,14S,17R)-3-hydroxy-10,13-dimethyl-2,3,4,7,8,9,10,11,12,13,14,15,16,17-tetradecahydro-1H-cyclopenta[a]phenanthren-17-yl)pentanoyl)-3-methylpiperazine-1-carboxylate] came in with an IC50 in assay [1] of less than 0.25 µM. The EC50 in assay [2] was more than 10 µM.

In assay [1], `C[C@H](CCC(=O)N1CCN(C(=O)c2ccncc2)C[C@@H]1C)[C@H]1CC[C@H]2[C@@H]3CC=C4C[C@@H](O)CC[C@]4(C)[C@H]3CC[C@]12C` [Example 590, (R)-4-((3S,8S,9S,10R,13R,14S,17R)-3-hydroxy-10,13-dimethyl-2,3,4,7,8,9,10,11,12,13,14,15,16,17-tetradecahydro-1H-cyclopenta[a]phenanthren-17-yl)-1-((S)-4-isonicotinoyl-2-methylpiperazin-1-yl)pentan-1-one] registered an IC50 of less than 0.25 µM. The EC50 in assay [2] is more than 10 µM.

In assay [1], `COC(=O)N1CCC(C(=O)NC[C@@H](C)[C@H]2CC[C@H]3[C@@H]4CC=C5C[C@@H](O)CC[C@]5(C)[C@H]4CC[C@]23C)CC1` [Example 591, Methyl 4-{[(2S)-2-[(1R,3aS,3bS,7S,9aR,9bS,11aS)-7-hydroxy-9a,11a-dimethyl-1H,2H,3H,3aH,3bH,4H,6H,7H,8H,9H,9aH,9bH,10H,11H,11aH-cyclopenta[a]phenanthren-1-yl]propyl]carbamoyl}piperidine-1-carboxylate] yielded an IC50 of less than 0.25 µM. In addition, in assay [2], the EC50 is more than 10 µM.

In the case of `COC(=O)N1CCN(C(=O)C[C@@H](C)[C@H]2CC[C@H]3[C@@H]4CC=C5C[C@@H](O)CC[C@]5(C)[C@H]4CC[C@]23C)CC1` [Example 593, Methyl 4-[(3R)-3-[(1R,3aS,3bS,7S,9aR,9bS,11aR)-7-hydroxy-9a,11a-dimethyl-1H,2H,3H,3aH,3bH,4H,6H,7H,8H,9H,9aH,9bH,10H,11H,11aH-cyclopenta[a]phenanthren-1-yl]butanoyl]piperazine-1-carboxylate], the IC50 in assay [1] is 1 to 10 µM. In addition, the EC50 in assay [2] was more than 10 µM.

As to `C[C@H](CC(=O)N1CCN(C(=O)c2cnn(C)c2)CC1)[C@H]1CC[C@H]2[C@@H]3CC=C4C[C@@H](O)CC[C@]4(C)[C@H]3CC[C@]12C` [Example 594, (R)-3-((3S,8S,9S,10R,13R,14S,17R)-3-hydroxy-10,13-dimethyl-2,3,4,7,8,9,10,11,12,13,14,15,16,17-tetradecahydro-1H-cyclopenta[a]phenanthren-17-yl)-1-(4-(1-methyl-1H-pyrazole-4-carbonyl)piperazin-1-yl)butan-1-one], in assay [1], the IC50 was 1 to 10 µM. Besides, in assay [2], the EC50 is more than 10 µM.

Regarding `C[C@H](CC(=O)N1CCN(c2ccncn2)CC1)[C@H]1CC[C@H]2[C@@H]3CC=C4C[C@@H](O)CC[C@]4(C)[C@H]3CC[C@]12C` [Example 595, (R)-3-((3S,8S,9S,10R,13R,14S,17R)-3-hydroxy-10,13-dimethyl-2,3,4,7,8,9,10,11,12,13,14,15,16,17-tetradecahydro-1H-cyclopenta[a]phenanthren-17-yl)-1-(4-(pyrimidin-4-yl)piperazin-1-yl)butan-1-one], in assay [1], the IC50 was in the range of 1 to 10 µM. Besides, in assay [2], the EC50 was more than 10 µM.

In turn, `C[C@H](COC(=O)N1CCN(C(=O)c2cnn(C)c2)CC1)[C@H]1CC[C@H]2[C@@H]3CC=C4C[C@@H](O)CC[C@]4(C)[C@H]3CC[C@]12C` [Example 596, (S)-2-((3S,8S,9S,10R,13S,14S,17R)-3-hydroxy-10,13-dimethyl-2,3,4,7,8,9,10,11,12,13,14,15,16,17-tetradecahydro-1H-cyclopenta[a]phenanthren-17-yl)propyl 4-(1-methyl-1H-pyrazole-4-carbonyl)piperazine-1-carboxylate] returned an IC50 in assay [1] of less than 0.25 µM. In addition, the EC50 in assay [2] was more than 10 µM.

As for `C[C@H](COC(=O)N1CCN(c2ccncc2)CC1)[C@H]1CC[C@H]2[C@@H]3CC=C4C[C@@H](O)CC[C@]4(C)[C@H]3CC[C@]12C` [Example 597, (2S)-2-[(1R,3aS,3bS,7S,9aR,9bS,11aS)-7-hydroxy-9a,11a-dimethyl-1H,2H,3H,3aH,3bH,4H,6H,7H,8H,9H,9aH,9bH,10H,11H,11aH-cyclopenta[a]phenanthren-1-yl]propyl 4-(pyridin-4-yl)piperazine-1-carboxylate], in assay [1], the IC50 is less than 0.25 µM. For the same molecule, the EC50 in assay [2] was more than 10 µM.

In assay [1], `COC(=O)N1CCN(C(=O)[C@@H](C)[C@H]2CC[C@H]3[C@@H]4CC=C5C[C@@H](O)CC[C@]5(C)[C@H]4CC[C@]23C)CC1` [Example 598, methyl 4-((S)-2-((3S,8S,9S,10R,13S,14S,17R)-3-hydroxy-10,13-dimethyl-2,3,4,7,8,9,10,11,12,13,14,15,16,17-tetradecahydro-1H-cyclopenta[a]phenanthren-17-yl)propanoyl)piperazine-1-carboxylate] showed an IC50 of 1 to 10 µM. Also, the EC50 in assay [2] was more than 10 µM.

On to `C[C@H](C(=O)NCc1ccncc1)[C@H]1CC[C@H]2[C@@H]3CC=C4C[C@@H](O)CC[C@]4(C)[C@H]3CC[C@]12C` [Example 599, (S)-2-((3S,8S,9S,10R,13S,14S,17R)-3-hydroxy-10,13-dimethyl-2,3,4,7,8,9,10,11,12,13,14,15,16,17-tetradecahydro-1H-cyclopenta[a]phenanthren-17-yl)-N-(pyridin-4-ylmethyl)propanamide], for which, in assay [1], the IC50 is 1 to 10 µM. Further, the EC50 in assay [2] is more than 10 µM.
